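Each compound was tested at five concentrations against cells in 96-well plates for 48 hours. GI50 = concentration required for 50% inhibition of growth. Definition used: TGI = concentration required for complete inhibition of growth.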
Columns and labels:
Assay in all cases: NCI tumour cell line growth inhibition, 48 h
OVCAR-5 ovarian = test system: OVCAR-5 ovarian
IGROV1 ovarian = test system: IGROV1 ovarian
CCRF-CEM leukemia = test system: CCRF-CEM leukemia
SF-268 CNS = test system: SF-268 CNS
786-0 renal = test system: 786-0 renal
RXF 393 renal = test system: RXF 393 renal
SK-MEL-5 melanoma = test system: SK-MEL-5 melanoma
LXFL 529 NSCLC = test system: LXFL 529 NSCLC
COLO 205 colon = test system: COLO 205 colon
HOP-62 NSCLC = test system: HOP-62 NSCLC

SMILES | TGI (OVCAR-5 ovarian) | TGI (IGROV1 ovarian) | TGI (CCRF-CEM leukemia) | TGI (SF-268 CNS) | TGI (786-0 renal) | TGI (RXF 393 renal) | TGI (SK-MEL-5 melanoma) | TGI (LXFL 529 NSCLC) | TGI (COLO 205 colon) | TGI (HOP-62 NSCLC) | GI50 (OVCAR-5 ovarian) | GI50 (IGROV1 ovarian) | GI50 (CCRF-CEM leukemia) | GI50 (SF-268 CNS) | GI50 (786-0 renal) | GI50 (RXF 393 renal) | GI50 (SK-MEL-5 melanoma) | GI50 (LXFL 529 NSCLC) | GI50 (COLO 205 colon) | GI50 (HOP-62 NSCLC)
C[N+](C)(C)CC1CCCCC1O (stereo unspecified) | > 100 µM | > 100 µM | > 100 µM | > 100 µM | > 100 µM | > 100 µM | > 100 µM | > 100 µM | > 100 µM | > 100 µM |  |  |  |  |  |  |  |  |  | 
COc1ccc(CN2CCC/C=C/CC(Cl)(Cl)C2=O)cc1 | > 100 µM | > 100 µM | > 100 µM | > 100 µM | > 100 µM | 78.7 µM | 35 µM | > 100 µM | 41.2 µM | > 100 µM |  |  |  |  |  |  |  |  |  | 
CSc1nnc(COc2ccc(Cl)cc2)o1 | > 100 µM | > 100 µM |  | > 100 µM | > 100 µM | > 100 µM | > 100 µM | > 100 µM | > 100 µM | > 100 µM |  |  |  |  |  |  |  |  |  | 
CC(C)(C)C(=O)[CH-]C(=O)C(C)(C)C.CC(C)(C)C(=O)[CH-]C(=O)C(C)(C)C.CN(C)c1ccc([O-])cc1.CN(C)c1ccc([O-])cc1.[Ti+4] | > 100 µM | > 100 µM | > 100 µM | > 100 µM | > 100 µM | > 100 µM | > 100 µM | > 100 µM | > 100 µM | > 100 µM | > 100 µM | > 100 µM | > 100 µM | > 100 µM | 68.2 µM | 14.4 µM | > 100 µM | 57.9 µM | > 100 µM | > 100 µM
Cn1c2c(c3ccccc31)CCN(CCN1CCN(c3cccc(Cl)c3)CC1)C2=O |  | > 100 µM | > 100 µM | > 100 µM | > 100 µM | > 100 µM | 62.6 µM | > 100 µM | > 100 µM | > 100 µM |  |  |  |  |  |  |  |  |  | 
COC(=O)C1(C(=O)OC)CC(=O)c2cc3c(cc2-c2c(cc(OC)c(OC)c2OC)C1)OCO3 | > 211 µM | > 211 µM | > 211 µM | > 211 µM | > 211 µM | > 211 µM | > 211 µM | > 211 µM | > 211 µM | > 211 µM |  |  |  |  |  |  |  |  |  | 
Cc1c2ccccc2cc2ccc3oc([N+](=O)[O-])cc3c12 | > 100 µM | > 100 µM | > 100 µM | > 100 µM | > 100 µM | > 100 µM | > 100 µM | > 100 µM | > 100 µM | > 100 µM |  |  |  |  |  |  |  |  |  | 
O=c1oc2ccccc2[n+]([O-])c1-c1ccccc1 | > 100 µM | > 100 µM | > 100 µM | > 100 µM | > 100 µM | > 100 µM | > 100 µM | > 100 µM | > 100 µM | > 100 µM |  |  |  |  |  |  |  |  |  | 
CC(C)(Oc1ccc(/C=C/C(=O)c2ccc(Cl)cc2)cc1)C(=O)Nc1c(Cl)cccc1Cl | > 100 µM | 76.3 µM |  | 90.2 µM | 45.8 µM | 36.9 µM | 37 µM | 53.9 µM | 40.2 µM | > 100 µM |  |  |  |  |  |  |  |  |  | 
O=C(N/N=C/c1cccc(F)c1)c1ccncc1 |  |  | > 100 µM | > 100 µM | > 100 µM | > 100 µM | > 100 µM | > 100 µM | > 100 µM | > 100 µM |  |  |  |  |  |  |  |  |  | 
O=C(/C=C/c1ccccc1)CC(=O)CCC(=O)Nc1ccc(Cl)cc1 | > 100 µM | > 100 µM | > 100 µM | > 100 µM | > 100 µM |  | > 100 µM | > 100 µM | > 100 µM | > 100 µM |  |  |  |  |  |  |  |  |  | 
CN(C)C(=S)/N=c1\ssc(=S)n1Cc1ccncc1 | > 100 µM | 63.3 µM | 57 µM | > 100 µM | 66 µM | 70 µM | 17.4 µM | 82.1 µM | > 100 µM | 92.2 µM |  |  |  |  |  |  |  |  |  | 
CCCCN(CC)CC(C(C)=O)c1c(O)c2ccccc2oc1=O (stereo unspecified) | > 100 µM | > 100 µM | > 100 µM | > 100 µM | > 100 µM | > 100 µM | > 100 µM | > 100 µM | > 100 µM | > 100 µM |  |  |  |  |  |  |  |  |  | 
Cc1cc(N(CCC#N)CCC#N)ccc1/C=C(\NC(=O)/C=C/c1ccccc1)C(=O)NN | > 100 µM | > 100 µM | > 100 µM | > 100 µM | > 100 µM | > 92.3 µM | > 100 µM | > 100 µM | > 100 µM | > 90.3 µM |  |  |  |  |  |  |  |  |  | 
C=CC(OCC)(OCC)OCC | > 100 µM | > 100 µM | > 100 µM | > 100 µM | 58.7 µM | > 100 µM | > 100 µM | > 100 µM | > 100 µM | > 100 µM |  |  |  |  |  |  |  |  |  | 
CCC(=O)Nc1nc2c(ncn2C2OC(COC(=O)CC)C(OC(=O)CC)C2OC(=O)CC)c(=O)[nH]1 (stereo unspecified) | > 100 µM | > 100 µM |  | > 100 µM | > 100 µM | > 100 µM | > 100 µM | > 100 µM |  | > 100 µM |  |  |  |  |  |  |  |  |  | 
O=[N+]([O-])c1ccc(-c2ccc(-c3csc(Nc4ccccc4)n3)o2)cc1 | 31.6 µM | > 63.9 µM | 16.9 µM | 33.2 µM | 30.9 µM |  | 40.1 µM | 32.9 µM | 58.2 µM | > 100 µM |  |  |  |  |  |  |  |  |  | 
Cc1ccccc1NC(=O)C1C(=O)N(c2ccccc2C)C(=O)/C1=N\NC(N)=S (stereo unspecified) |  | > 100 µM | > 100 µM | > 100 µM | > 100 µM |  |  | > 100 µM |  |  |  |  |  |  |  |  |  |  |  | 
COc1ccc(/C(=N\NC(=S)NN)C(c2ccc(OC)cc2)C2C(=O)Oc3ccccc32)cc1 (stereo unspecified) | > 100 µM | > 100 µM | > 100 µM | > 100 µM | > 100 µM | > 100 µM | > 100 µM | > 100 µM | > 100 µM |  | > 100 µM | > 100 µM |  | > 100 µM | > 100 µM | > 100 µM | > 100 µM |  | > 100 µM | 
CC(=O)N1CCC2(c3ccccc3N(C(C)=O)C2c2ccc(O)cc2)C1C(=O)O (stereo unspecified) | > 100 µM |  | > 100 µM | > 100 µM | > 100 µM | > 100 µM | > 100 µM | > 100 µM | > 100 µM | > 100 µM |  |  |  |  |  |  |  |  |  | 
COc1ccc(C(=O)NCCN(C)C)c2nc3ccccc3nc12 | 16 µM |  |  |  | > 59.9 µM | 25.4 µM | > 36.6 µM | > 37.9 µM | > 26.1 µM | 9.06 µM |  |  |  |  |  |  |  |  |  | 
O=[N+]([O-])c1ccc(Sc2c3ccccc3nc3cc(Cl)ccc23)cc1 | > 100 µM | > 100 µM | > 100 µM | > 100 µM | > 100 µM | > 100 µM | > 100 µM | > 100 µM | > 100 µM | > 100 µM | > 100 µM | > 100 µM |  | > 100 µM | > 100 µM |  | > 100 µM | > 100 µM | > 100 µM | > 100 µM

From PubChem BioAssay (NCI)
